Assay results from ChEMBL document CHEMBL5528010, “The discovery of aryl-2-nitroethyl triamino pyrimidines as anti-Trypanosoma brucei agents” (Eur J Med Chem, 2024).
pEC50, pIC50: −log10 of the molar value. Blank lines part the entries; values can stand above or below the molecule they belong to. Activity calls are given as the source filed them. The calls are words filed in the database; no cut-off is given here.

Columns and labels:
[1] = Inhibition of N-terminal his 6 tagged recombinant Trypanosoma brucei PTR1 expressed in Escherichia coli BL21 (DE3) cells preincubated for 10 mins followed by NADPH addition and measured after 10 to 50 mins by multilabel plate reader method; type: cell-based
Pteridine reductase 1 = target: T1, Pteridine reductase 1 (Leishmania major, UniProt Q01782); assay: Inhibition of N-terminal his 6 tagged recombinant Leishmania major PTR1 expressed in Escherichia coli BL21 (DE3) cells preincubated for 10 mins followed by NADPH addition and measured after 10 to 50 mins by multilabel plate reader method
T1 sequence (Q01782 whole entry): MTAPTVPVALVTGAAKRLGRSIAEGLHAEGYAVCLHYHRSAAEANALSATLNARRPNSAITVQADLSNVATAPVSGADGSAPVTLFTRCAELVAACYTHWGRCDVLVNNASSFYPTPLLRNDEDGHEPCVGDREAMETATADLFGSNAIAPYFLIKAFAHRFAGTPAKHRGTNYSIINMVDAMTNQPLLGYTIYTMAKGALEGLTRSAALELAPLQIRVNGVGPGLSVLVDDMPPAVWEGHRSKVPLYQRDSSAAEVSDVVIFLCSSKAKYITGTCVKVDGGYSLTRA

Trypanosoma brucei [2] = assay: Antiparasitic activity against blood stream form Trypanosoma brucei assessed as parasitic growth inhibition incubated for 72 hrs by resazurin dye based fluorescence analysis; type: functional, organism-based
THP-1 = assay: Cytotoxicity against human THP-1 cells assessed as reduction in cell viability measured after 72 hrs by MTT assay; type: functional
[3] = Selectivity index, ratio of CC50 for human THP-1 cells to EC50 for bloodstream form Trypanosoma brucei; type: toxicity; conditions: read-out: Ratio CC50/EC50
Leishmania infantum = assay: Antiparasitic activity against Leishmania infantum intracellular amastigotes MHOM/BR/1972/BH46 infected in human THP-1 cells assessed as inhibition of parasitic growth at 50 uM pre-infected for 24 hrs followed by compound addition and measured after 48 hrs relative to control; type: functional; conditions: MHOM/BR/1972/BH46, THP-1
[4] = target: Voltage-gated inwardly rectifying potassium channel KCNH2 (Homo sapiens, UniProt Q12809); assay: Inhibition of human ERG incubated for 2 hrs by fluorescence polarization assay; type: toxicity
Cytochrome P450 2C9 = Cytochrome P450 2C9 (Homo sapiens, UniProt P11712); assay: Inhibition of CYP2C9 (unknown origin) expressed in baculovirus infected insect cells using luciferin as substrate preincubated for 30 mins followed by NADPH addition and measured after 30 mins by luminescence based analysis; type: ADME, Insect cell
Cytochrome P450 1A2 = target: T2, Cytochrome P450 1A2 (Homo sapiens, UniProt P05177); assay: Inhibition of CYP1A2 (unknown origin) expressed in baculovirus infected insect cells using luciferin as substrate preincubated for 30 mins followed by NADPH addition and measured after 30 mins by luminescence based analysis; type: ADME, Insect cell
T2 sequence (P05177 whole entry): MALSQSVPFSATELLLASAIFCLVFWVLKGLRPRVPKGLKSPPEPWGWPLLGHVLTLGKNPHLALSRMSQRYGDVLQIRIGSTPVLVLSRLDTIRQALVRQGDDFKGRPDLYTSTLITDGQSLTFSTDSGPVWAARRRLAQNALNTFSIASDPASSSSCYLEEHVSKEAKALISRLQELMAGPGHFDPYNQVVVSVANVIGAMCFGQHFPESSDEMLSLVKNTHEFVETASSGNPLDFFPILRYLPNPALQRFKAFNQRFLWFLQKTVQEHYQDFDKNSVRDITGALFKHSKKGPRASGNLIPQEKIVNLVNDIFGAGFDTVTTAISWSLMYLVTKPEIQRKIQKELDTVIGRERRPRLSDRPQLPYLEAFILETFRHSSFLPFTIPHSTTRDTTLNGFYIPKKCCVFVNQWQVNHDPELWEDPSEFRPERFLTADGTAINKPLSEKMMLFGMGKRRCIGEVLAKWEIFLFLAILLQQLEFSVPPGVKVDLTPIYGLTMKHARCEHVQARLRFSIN

Cytochrome P450 2C19 = Cytochrome P450 2C19 (Homo sapiens, UniProt P33261); assay: Inhibition of CYP2C19 (unknown origin) expressed in baculovirus infected insect cells using luciferin as substrate preincubated for 30 mins followed by NADPH addition and measured after 30 mins by luminescence based analysis; type: ADME, Insect cell
Cytochrome P450 2D6 = Cytochrome P450 2D6 (Homo sapiens, UniProt P10635); assay: Inhibition of CYP2D6 (unknown origin) expressed in baculovirus infected insect cells using luciferin as substrate preincubated for 30 mins followed by NADPH addition and measured after 30 mins by luminescence based analysis; type: ADME, Insect cell
Cytochrome P450 3A4 = Cytochrome P450 3A4 (Homo sapiens, UniProt P08684); assay: Inhibition of CYP3A4 (unknown origin) expressed in baculovirus infected insect cells using luciferin as substrate preincubated for 30 mins followed by NADPH addition and measured after 30 mins by luminescence based analysis; type: ADME, Insect cell
hERG = assay: Selectivity index, ratio of IC50 for human ERG to EC50 for blood stream form Trypanosoma brucei; type: toxicity; conditions: read-out: Ratio IC50/EC50
CYP1A2 = assay: Selectivity index, ratio of IC50 for CYP1A2 (unknown origin) to EC50 for blood stream form Trypanosoma brucei; type: toxicity; conditions: read-out: Ratio IC50/EC50
CYP2C9 = assay: Selectivity index, ratio of IC50 for CYP2C9 (unknown origin) to EC50 for blood stream form Trypanosoma brucei; type: toxicity; conditions: read-out: Ratio IC50/EC50
CYP2C19 = assay: Selectivity index, ratio of IC50 for CYP2C19 (unknown origin) to EC50 for blood stream form Trypanosoma brucei; type: toxicity; conditions: read-out: Ratio IC50/EC50
CYP2D6 = assay: Selectivity index, ratio of IC50 for CYP2D6 (unknown origin) to EC50 for blood stream form Trypanosoma brucei; type: toxicity; conditions: read-out: Ratio IC50/EC50
CYP3A4 = assay: Selectivity index, ratio of IC50 for CYP3A4 (unknown origin) to EC50 for blood stream form Trypanosoma brucei; type: toxicity; conditions: read-out: Ratio IC50/EC50
[5] = Growth inhibition of human A549 cells measured after 48 hrs by celltiter-glo assay; type: toxicity, cell-based
[6] = Mitochondrial toxicity in human A549 cells; type: cell-based
[7] = Selectivity index, ratio of GI50 for human A549 cells to EC50 for blood stream form Trypanosoma brucei; type: toxicity; conditions: read-out: Ratio GI50/EC50
[8] = Selectivity index, ratio of IC50 for human A549 cells to EC50 for blood stream form Trypanosoma brucei; type: toxicity; conditions: read-out: Ratio IC50/EC50
[9] = Cmax in BALB/c mouse at 20 mg/kg, po measured upto 24 hrs by LC-MS/MS analysis; type: ADME, organism-based; conditions: in vivo
[10] = Tmax in BALB/c mouse at 20 mg/kg, po measured upto 24 hrs by LC-MS/MS analysis; type: ADME, organism-based; conditions: in vivo
[11] = AUC last in BALB/c mouse at 20 mg/kg, po measured upto 24 hrs by LC-MS/MS analysis; type: ADME, organism-based; conditions: in vivo
[12] = Half life in BALB/c mouse at 20 mg/kg, po measured upto 24 hrs by LC-MS/MS analysis; type: ADME, organism-based; conditions: in vivo
Trypanosoma brucei [13] = assay: Anti-parasitic activity against Trypanosoma brucei infected in BALB/c mouse model assessed as reduction of parasitemia at 20 mg/kg administered daily; type: functional, organism-based
Trypanosoma brucei [14] = assay: Anti-parasitic activity against Trypanosoma brucei infected in BALB/c mouse model assessed as reduction of parasitemia at 5 mg/kg/day, ip relative to control; type: functional; design: scale not given: the % may be the effect or the level left

Voltage-gated inwardly rectifying potassium channel KCNH2, sequence (Q12809 whole entry): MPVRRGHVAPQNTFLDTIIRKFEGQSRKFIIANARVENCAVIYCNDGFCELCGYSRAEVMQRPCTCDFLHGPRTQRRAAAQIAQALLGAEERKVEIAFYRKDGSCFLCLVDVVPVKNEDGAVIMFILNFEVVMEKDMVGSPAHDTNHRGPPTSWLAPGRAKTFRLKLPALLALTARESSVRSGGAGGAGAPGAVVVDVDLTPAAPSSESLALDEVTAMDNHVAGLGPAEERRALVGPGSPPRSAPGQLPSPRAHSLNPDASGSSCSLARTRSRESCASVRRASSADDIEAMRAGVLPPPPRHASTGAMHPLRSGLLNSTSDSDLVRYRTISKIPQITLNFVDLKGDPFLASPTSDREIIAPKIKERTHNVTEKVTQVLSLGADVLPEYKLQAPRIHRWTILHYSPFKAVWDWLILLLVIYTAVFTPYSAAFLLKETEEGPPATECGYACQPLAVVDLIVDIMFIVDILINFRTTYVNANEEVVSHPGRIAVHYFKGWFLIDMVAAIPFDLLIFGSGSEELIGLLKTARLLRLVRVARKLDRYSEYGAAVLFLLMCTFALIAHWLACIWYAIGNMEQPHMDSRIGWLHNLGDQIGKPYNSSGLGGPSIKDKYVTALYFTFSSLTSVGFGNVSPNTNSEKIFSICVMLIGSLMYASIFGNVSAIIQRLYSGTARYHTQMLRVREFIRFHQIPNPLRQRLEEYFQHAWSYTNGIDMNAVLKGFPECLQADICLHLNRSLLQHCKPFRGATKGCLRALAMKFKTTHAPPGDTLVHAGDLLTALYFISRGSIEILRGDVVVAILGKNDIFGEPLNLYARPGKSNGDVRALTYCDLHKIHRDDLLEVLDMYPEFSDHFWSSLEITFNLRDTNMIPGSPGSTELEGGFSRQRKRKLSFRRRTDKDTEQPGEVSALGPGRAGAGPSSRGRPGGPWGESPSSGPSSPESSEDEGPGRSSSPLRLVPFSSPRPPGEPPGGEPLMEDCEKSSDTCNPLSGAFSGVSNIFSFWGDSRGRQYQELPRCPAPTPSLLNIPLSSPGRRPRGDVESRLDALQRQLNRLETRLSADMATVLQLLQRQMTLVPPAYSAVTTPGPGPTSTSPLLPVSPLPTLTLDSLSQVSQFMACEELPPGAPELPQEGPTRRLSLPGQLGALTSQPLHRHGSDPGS
Cytochrome P450 2C19, sequence (P33261 whole entry): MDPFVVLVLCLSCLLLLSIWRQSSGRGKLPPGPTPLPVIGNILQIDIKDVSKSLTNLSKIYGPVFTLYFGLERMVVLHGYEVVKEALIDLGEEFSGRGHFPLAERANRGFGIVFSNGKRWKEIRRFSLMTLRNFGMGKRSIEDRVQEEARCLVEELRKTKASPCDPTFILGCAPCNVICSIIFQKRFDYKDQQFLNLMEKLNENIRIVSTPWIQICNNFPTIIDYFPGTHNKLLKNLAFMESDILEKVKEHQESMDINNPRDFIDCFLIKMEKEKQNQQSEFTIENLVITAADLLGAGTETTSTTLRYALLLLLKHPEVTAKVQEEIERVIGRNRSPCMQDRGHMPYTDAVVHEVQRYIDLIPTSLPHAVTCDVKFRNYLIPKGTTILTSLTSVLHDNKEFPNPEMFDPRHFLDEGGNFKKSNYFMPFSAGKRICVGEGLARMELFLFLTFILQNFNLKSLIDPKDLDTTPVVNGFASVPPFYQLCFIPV
Cytochrome P450 2D6, sequence (P10635 whole entry): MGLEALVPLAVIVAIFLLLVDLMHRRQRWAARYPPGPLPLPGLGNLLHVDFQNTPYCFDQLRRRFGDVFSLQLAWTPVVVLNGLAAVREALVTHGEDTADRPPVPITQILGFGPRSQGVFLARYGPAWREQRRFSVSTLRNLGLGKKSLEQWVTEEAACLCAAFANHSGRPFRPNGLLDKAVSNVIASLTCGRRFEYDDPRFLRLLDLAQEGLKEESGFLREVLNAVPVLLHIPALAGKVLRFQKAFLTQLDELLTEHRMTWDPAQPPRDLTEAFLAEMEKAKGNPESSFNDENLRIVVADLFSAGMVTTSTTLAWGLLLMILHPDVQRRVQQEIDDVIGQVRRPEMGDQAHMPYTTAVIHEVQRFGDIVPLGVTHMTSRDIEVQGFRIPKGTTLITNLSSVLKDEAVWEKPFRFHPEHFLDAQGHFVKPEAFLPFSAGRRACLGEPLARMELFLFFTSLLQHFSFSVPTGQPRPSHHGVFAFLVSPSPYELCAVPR
Cytochrome P450 2C9, sequence (P11712 whole entry): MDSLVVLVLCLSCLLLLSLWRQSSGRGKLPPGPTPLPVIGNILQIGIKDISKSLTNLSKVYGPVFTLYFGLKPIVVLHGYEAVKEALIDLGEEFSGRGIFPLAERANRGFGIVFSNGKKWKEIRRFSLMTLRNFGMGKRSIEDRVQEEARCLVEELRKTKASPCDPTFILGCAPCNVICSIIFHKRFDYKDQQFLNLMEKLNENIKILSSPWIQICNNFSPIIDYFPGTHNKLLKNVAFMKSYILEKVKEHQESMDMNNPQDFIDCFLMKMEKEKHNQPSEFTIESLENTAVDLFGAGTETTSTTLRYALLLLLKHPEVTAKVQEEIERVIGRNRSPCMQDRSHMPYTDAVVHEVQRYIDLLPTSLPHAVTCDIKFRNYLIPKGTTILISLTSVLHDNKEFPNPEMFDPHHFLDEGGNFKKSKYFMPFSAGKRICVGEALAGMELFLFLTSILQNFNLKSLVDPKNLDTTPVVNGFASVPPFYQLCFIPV
Cytochrome P450 3A4, sequence (P08684 whole entry): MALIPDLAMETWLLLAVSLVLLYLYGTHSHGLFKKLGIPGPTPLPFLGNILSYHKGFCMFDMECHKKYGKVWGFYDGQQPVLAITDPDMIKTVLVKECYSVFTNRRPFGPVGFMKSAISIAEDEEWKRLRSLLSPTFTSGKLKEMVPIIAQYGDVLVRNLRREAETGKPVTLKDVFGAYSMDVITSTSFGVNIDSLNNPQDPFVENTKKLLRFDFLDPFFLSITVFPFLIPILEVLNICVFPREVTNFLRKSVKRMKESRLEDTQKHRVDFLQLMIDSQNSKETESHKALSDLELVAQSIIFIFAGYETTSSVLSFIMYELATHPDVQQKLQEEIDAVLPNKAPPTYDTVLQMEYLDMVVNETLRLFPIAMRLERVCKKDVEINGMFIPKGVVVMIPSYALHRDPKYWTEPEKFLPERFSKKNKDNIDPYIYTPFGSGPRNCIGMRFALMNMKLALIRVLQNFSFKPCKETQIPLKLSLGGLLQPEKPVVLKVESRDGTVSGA

pIC50 (Pteridine reductase 1): 4.32
pEC50 (Trypanosoma brucei [2]): 7.05
pIC50 (Cytochrome P450 2C9): 4.61
pIC50 (Cytochrome P450 1A2): 5.52
pIC50 (Cytochrome P450 2C19): 4.82
pIC50 (Cytochrome P450 2D6): 4.99
pIC50 (Cytochrome P450 3A4): < 4.00
Cmax [9]: 828 ng/mL
Tmax [10]: 1 h
AUC(0-t) at 24 h [11]: 5290 ng·h/mL
half-life [12]: 126 min
SMILES: Nc1nc(N)c(C(C[N+](=O)[O-])c2csc3ccccc23)c(N)n1 (stereo not given)
pIC50 [1]: 6.52
CC50 (THP-1): 12.5 µM
selectivity ratio [3]: 139
inhibition at 50 µM (Leishmania infantum): 49%
pIC50 [4]: 4.80
selectivity ratio (hERG): 178
selectivity ratio (CYP1A2): 33
selectivity ratio (CYP2C9): 271
selectivity ratio (CYP2C19): 170
selectivity ratio (CYP2D6): 113
selectivity ratio (CYP3A4): > 1100
GI50 at 48 h [5]: 10.6 µM
pIC50 [6]: 4.98
selectivity ratio [7]: 117
selectivity ratio [8]: 115
Activity (Trypanosoma brucei [13]): inactive

pIC50 (Pteridine reductase 1): 4.06
pEC50 (Trypanosoma brucei [2]): 8.40
SMILES: N=C(N)c1ccc(OCCCCCOc2ccc(C(=N)N)cc2)cc1 [PENTAMIDINE]
Activity (Trypanosoma brucei [14]): 100%
